The record followed here is US20190183960A1, “METHOD TO TREAT ASTHMA AND AIRWAY ALLERGY USING CYCLO TYROSINE-VALINE AND RELATED COMPOUNDS” (Chang Gung Biotechnology Corp., priority 2017, published 2019).

Series [1] deals with IL-4 secretion by Th2 cells. The series is described as follows: IL-4 secretion by Th2 cells derived from BALB/c mice (ELISA). The note with it: 3 days; for secretion of pro-inflammatory IL-4 by Th2 cells: 2.3 μM, vs vehicle (0.5% DMSO). In kind it is cell-based. The protocol:
Given that Th2 cells mediate the immunological effects of asthma in humans and animals, we tested the effects of cyclo Tyr-Val on Th2 cells in culture. Naive T cells were isolated from BALB/c mice, and the cells were incubated in a culture medium containing anti-CD3 antibody (2 μg/ml), anti-CD28 antibody (2 μg/ml), anti-interferon-γ (IFN-γ) antibody (10 μg/ml), and IL-4 (10 ng/ml) in order to induce T cell differentiation into Th2 cells. The Th2 cells were treated for 3 days with 2.3 μM of cyclo Tyr-Val, cyclo alanine-isoleucine (cyclo Ala-Ile), cyclo alanine-leucine (cyclo Ala-Leu), cyclo tyrosine-leucine (cyclo Tyr-Leu), cyclo alanine-phenylalanine (cyclo Ala-Phe), or cyclo tyrosine-isoleucine (cyclo Tyr-Ile), and IL-4 protein level was measured using an enzyme-linked immunosorbent assay (ELISA) kit (eBioscience, USA).
(§1) We confirmed that cyclo Tyr-Val inhibits IL-4 secretion by Th2 cells. Th2 cells isolated from BALB/c or C57BL/6J mice were either left untreated or treated for 3 days with the vehicle (0.5% DMSO in saline) or various concentrations of cyclo Tyr-Val, followed by detection of IL-4 production using ELISA.
(§2) The effects of cyclo Tyr-Val on the secretion of other pro-inflammatory cytokines were investigated. […] As shown in FIGS. 4A-4C, cyclo Tyr-Val inhibited not only the secretion of IL-4, but also that of IL-5 and IL-13.

The subject of series [2] is IL-4 secretion by Th2 cells. Nature of the series: IL-4 secretion by Th2 cells derived from C57BL/6J mice (ELISA). The conditions noted are these: 3 days. In kind it is cell-based.
Source text: as §1

Series [3] deals with Th2 cells. The series is described as follows: Viability of Th2 cells (WST-1 kit). The series is classed as cell-based, BALB/c mice. The note with it: 0.018-285.932 μM, 3 days. The protocol: Experiments were performed to examine the effects of cyclo Tyr-Val on cell viability. Th2 cells isolated from BALB/c mice were either left untreated or treated for 3 days with the vehicle (0.5% DMSO in saline) or cyclo Tyr-Val at a concentration of 0.018, 0.091, 0.457, 2.287, 11.438, 57.186, or 285.932 μM. The viability of these cells was assessed using the WST-1 kit (Roche, Switzerland) according to the manufacturer's instructions.

Series [4] concerns IL-5 secretion by Th2 cells. The series is described as follows: IL-5 secretion by Th2 cells derived from BALB/c mice (ELISA). In kind it is cell-based. The conditions noted are these: 0.25 μM, 3 days.
Source text: as §2

Series [5] has as its system IL-13 secretion by Th2 cells. The series is described as follows: IL-13 secretion by Th2 cells derived from BALB/c mice (ELISA). In kind it is cell-based. The note with it: 0.25 μM, 3 days.
Source text: as §2

Series [6] relates to OVA-induced asthmatic mice. The series is described as follows: OVA-induced airway hyperresponsiveness (Penh, whole-body plethysmography, methacholine). In kind it is in vivo, BALB/c mice. The conditions noted are these: IP 0.11304-113.04 nmol/kg per day, day 21 to 27, methacholine 0-40 mg/ml. The protocol: Given that asthma is characterized by hyperresponsiveness to airway stimulants, we examined the effect of cyclo Tyr-Val on AHR in the OVA-induced asthmatic mice stimulated with the exemplary antigen OVA and methacholine (Mch). BALB/c mice were treated intraperitoneally with 50 μg of OVA (Sigma, USA) mixed with 0.8 mg of aluminum hydroxide (Thermo Fischer Scientific, USA) on day 0, 1, 2, and 14, and treated with 2% OVA for 20 minutes using a nebulizer (Pulmo-Aide 5650D; DeVilbiss, USA) on day 14, 17, 21, 24, and 27. The OVA-induced asthmatic mice were intraperitoneally treated with the vehicle (0.5% DMSO in saline) or cyclo Tyr-Val at a dose of 0.11304, 1.1304, 11.304, or 113.04 nmol/kg of body weight per day on day 21 to 27. Airway resistance (Penh) was measured using a whole-body plethysmography (WBP) chamber (Buxco Electronics, USA) after stimulation with methacholine at doses of 0, 10, 20, 30, and 40 mg/ml.

In series [7] the test system is OVA-induced asthmatic mice. Nature of the series: BALF total cell and eosinophil count in OVA-induced asthmatic mice. The note with it: IP 0.11304-113.04 nmol/kg per day, day 21 to 27. The series is classed as in vivo, BALB/c mice. The text has this: (§3) Given that asthma is characterized by accumulation of immune cells including eosinophils in lung tissues, we studied the effects of cyclo Tyr-Val on BALF cell count, pro-inflammatory cytokine secretion, and antibody production. OVA-induced asthmatic mice (BALB/c) were established according to the method described in Example 2. After the mice were intraperitoneally treated with the vehicle (0.5% DMSO in saline) or cyclo Tyr-Val at a dose of 0.11304, 1.1304, 11.304, or 113.04 nmol/kg of body weight per day on day 21 to 27, BALF and serum were collected. Total cell count in BALF was determined using a hemocytometer; eosinophils were counted after isolation using Cytospin. Protein levels of IL-4, IL-5, and IL-13 in BALF were determined using ELISA. Serum protein levels of OVA-specific antibodies, including IgE, IgG1, and IgG2a, were determined using ELISA (eBioscience).

The test system of series [8] is OVA-induced asthmatic mice. The series is described as follows: IL-4, IL-5, IL-13 protein levels in BALF of OVA-induced asthmatic mice (ELISA). In kind it is in vivo, BALB/c mice. The note with it: IP 0.11304-113.04 nmol/kg per day, day 21 to 27.
Source text: as §3

The test system of series [9] is OVA-induced asthmatic mice. Nature of the series: Serum OVA-specific antibodies in OVA-induced asthmatic mice (ELISA). In kind it is in vivo, BALB/c mice. The note with it: IP 0.11304-113.04 nmol/kg per day, day 21 to 27.
Source text: as §3

Series [10] deals with OVA-induced asthmatic mice. Nature of the series: Mode of administration (IP, inhalation, oral) in OVA-induced asthmatic mice. The series is classed as in vivo, BALB/c mice. The note with it: 11.304 nmol/kg per day, 7 days. The protocol:
This example illustrates the effects of the mode of administration of cyclo Tyr-Val on asthmatic mice. OVA-induced asthmatic mice (BALB/c) were established according to the method described in Example 2. On day 21, the mice were treated intraperitoneally (IP), by inhalation (IH), or orally with cyclo Tyr-Val (at a dose of 11.304 nmol/kg of body weight per day) for 7 days, followed by assessment of AHR, total cell count in BALF, and eosinophil count in BALE OVA-induced asthmatic mice that were administered daily with the vehicle (0.5% DMSO in saline) intraperitoneally were used as control. As shown in FIGS. 9A-9C, treatment of OVA-induced asthmatic mice with cyclo Tyr-Val for 7 days via intraperitoneal injection, inhalation, or the oral route reduced AHR, total BALF cell count, and BALF eosinophil accumulation, compared with the vehicle-treated group.

The subject of series [11] is OVA-induced asthmatic mice. The series is described as follows: Treatment after establishment of OVA-induced AHR, comparison with dexamethasone. The note with it: IP 11.304 nmol/kg per day, day 28 to 34, after establishment of AHR. In kind it is in vivo, BALB/c mice. The protocol: In this example, the anti-asthmatic effect of cyclo Tyr-Val was compared with those of dexamethasone, a pharmaceutical drug conventionally used to treat asthma. OVA-induced asthmatic mice (BALB/c) were established according to the method described in Example 2. The mice were treated with 2% OVA using a nebulizer on day 30 and 33 and were intraperitoneally treated with the vehicle (0.5% DMSO in saline) or cyclo Tyr-Val (at a dose of 11.304 nmol/kg of body weight per day) on day 28 to 34, followed by measurement of AHR, total cell count in BALF, and eosinophil count in BALF. Another group of OVA-induced asthmatic mice that were treated orally with dexamethasone (at a dose of 3 mg/kg of body weight per day) on day 28 to 34 were used as a positive control.

Series [12] is described as follows: Blood biochemical parameters (hepatic and renal functions) in mice. In kind it is in vivo. The note with it: IP 11.304 nmol/kg. The protocol: The effects of cyclo Tyr-Val treatment on hepatic and renal functions in mice were evaluated to determine if the compound produces toxic side effects. For these experiments, saline-treated mice (control group) or OVA-induced asthmatic mice were intraperitoneally treated with the vehicle (0.5% DMSO in saline) or cyclo Tyr-Val (at a dose of 11.304 nmol/kg), followed by measurement of blood biochemical parameters, including levels of aspartate transaminase (AST), alanine transaminase (ALT), total bilirubin (T-BIL), albumin (ALB), blood urea nitrogen (BUN), creatinine (CREA), and uric acid (UA). The blood biochemical parameters were monitored using a Hitachi 7080 biochemical analyzer (Hitachi, Japan).

pIC50: −log10 of the molar value.

`CC(C)C1NC(=O)C(Cc2ccc(O)cc2)NC1=O` (stereo not shown) [cyclo Tyr-Val, cyclo tyrosine-valine]: in series [1] (0.25 μM), the “secretion of IL-4” value is on record as “inhibited”. In series [1], the “secretion of pro-inflammatory IL-4 by Th2 cells” value (“secretion … by Th2 cells” below) was “significantly inhibited”. In series [1] (Mus musculus, 72 h, Th2 cells from BALB/c mice, read-out: IC50, inhibition of IL-4 secretion), the pIC50 was 7.58. Besides, the IC90 in series [1] (Mus musculus, 72 h, Th2 cells from BALB/c mice, read-out: IC90, inhibition of IL-4 secretion) turned out to be 252 nM. For the same compound, the “IL-4 secretion, dose dependence” value in series [1] (various concentrations, BALB/c Th2 cells) is “inhibited IL-4 secretion in a dose-dependent manner”. Besides, the pIC50 in series [2] (Mus musculus, 72 h, Th2 cells from C57BL/6J mice, read-out: IC50, inhibition of IL-4 secretion) is 7.35. Besides, the concentration for an effect of 90% (IC90) in series [2] (Mus musculus, 72 h, Th2 cells from C57BL/6J mice, read-out: IC90, inhibition of IL-4 secretion) came to 357 nM. Moreover, the “IL-4 secretion, dose dependence” value in [2] (various concentrations, C57BL/6J Th2 cells) is “inhibited IL-4 secretion in a dose-dependent manner”. The “cytotoxic effects on cultured Th2 cells (viability)” value in series [3] was “no cytotoxic effects”. For the same compound, the “secretion of IL-5” value in series [4] is “inhibited”. Also, the “secretion of IL-13” value in series [5] is reported as “inhibited”. The “OVA-induced AHR (airway resistance, Penh)” value in [6] is recorded as “inhibited OVA-induced AHR in a dose-dependent manner”. In addition, in series [7], the “OVA-induced cell infiltration in BALF (total cell count)” value was “reduced” and the “OVA-induced eosinophilia in BALF” value is “reduced”. Also, in series [8], the “OVA-induced secretion of IL-4 in BALF” value is on record as “reduced”, the “OVA-induced secretion of IL-5 in BALF” value is on record as “reduced” and the “OVA-induced secretion of IL-13 in BALF” value was “reduced”. Further, in [9], the “OVA-specific IgE production in sera” value is “dose-dependently reduces”, the “OVA-specific IgG1 production in sera” value is “dose-dependently reduces” and the “OVA-specific IgG2a production in sera” value was “dose-dependently reduces”. In addition, in [10] (inhalation), the AHR result is “reduced”, the BALF eosinophil accumulation result is reported as “reduced” and the “total BALF cell count” value is “reduced”. In addition, in [10] (intraperitoneal injection), the AHR result was “reduced”, the BALF eosinophil accumulation result is “reduced” and the “total BALF cell count” value is on record as “reduced”. Also, in series [10] (oral route), the AHR entry was “reduced”, the BALF eosinophil accumulation result is “reduced” and the “total BALF cell count” value was “reduced”. In addition, in [11], the AHR result is given as “significantly reduced”, the BALF eosinophil accumulation entry is listed as “significantly reduced” and the “BALF total cell count” value was “significantly reduced”. In series [12] (OVA-induced asthmatic mice), this compound yielded an ALB of 2.737 ± 0.322 g/dL, an ALT of 26.673 ± 2.279 U/l, an AST of 69.718 ± 4.115 U/l and a BUN of 25.864 ± 2.638 mg/dL. In [12] (OVA-induced asthmatic mice), this compound gave a CREA of 0.250 ± 0.078 mg/dL, a T-BIL of 26.508 ± 2.454 µg/dL and a UA of 2.690 ± 0.275 mg/dL. Besides, the “hepatic or renal functions” value in [12] (control and OVA-induced asthmatic mice) is recorded as “did not significantly affect”. Besides, in [12] (control mice), the ALB was 2.669 ± 0.480 g/dL, the ALT was 26.283 ± 2.813 U/l, the AST turned out to be 70.775 ± 3.056 U/l and the BUN worked out at 26.588 ± 2.756 mg/dL. For the same compound, in [12] (control mice), the CREA was 0.236 ± 0.124 mg/dL, the T-BIL came out at 26.169 ± 3.536 µg/dL and the UA was found to be 2.979 ± 0.412 mg/dL.

`CC[C@H](C)[C@@H]1NC(=O)[C@H](C)NC1=O` [cyclo Ala-Ile, cyclo alanine-isoleucine, reference compound]: the “secretion … by Th2 cells” value in series [1] is on record as “failed to inhibit IL-4 secretion”.

Regarding `CC(C)C[C@@H]1NC(=O)[C@H](C)NC1=O` [cyclo Ala-Leu, cyclo alanine-leucine, reference compound], in [1], the “secretion … by Th2 cells” value is “failed to inhibit IL-4 secretion”.

On to `CC1NC(=O)C(Cc2ccccc2)NC1=O` (stereo not shown) [cyclo Ala-Phe, cyclo alanine-phenylalanine, reference compound], for which the “secretion … by Th2 cells” value in series [1] is “failed to inhibit IL-4 secretion”.

For `CC(C)CC1NC(=O)C(Cc2ccc(O)cc2)NC1=O` (stereo not shown) [cyclo Tyr-Leu, cyclo tyrosine-leucine], the “secretion … by Th2 cells” value in series [1] is listed as “inhibited IL-4 to some extent”.

Consider `CC[C@H](C)[C@@H]1NC(=O)[C@H](Cc2ccc(O)cc2)NC1=O` [cyclo Tyr-Ile, cyclo tyrosine-isoleucine, reference compound], for which the “secretion … by Th2 cells” value in series [1] is “failed to inhibit IL-4 secretion”.
